The text below walks through data of EP0563127B1, “IMPROVED TREATMENT METHOD FOR CANCER” (priority 1990, dated 1992).

One series concerns bone marrow progenitors. The conditions noted are these: for CFU-C/10⁴ cells (No. of bone marrow colonies) / R.C.S. (Relative Cell Survival): 5FU lethal dose (7.5mg) alone; for R.C.S. (Relative Cell Survival) / R.C.S.: saline = 1.0. As to the method:
The DPPE and saline were administered 90 minutes prior to the 5FU. Bone marrow cell counts were made at 24 hours and 48 hours post administration.
Experiments paralleling those described above with 5FU were carried out employing a lethal dose of adriamycin (20mg/kg).

The test system of the next series is C-3 fibrosarcoma cells. The series is described as follows: In vivo augmentation of adriamycin anti-tumor activity in a murine sarcoma model. The conditions noted are these: intraperitoneally day 1, followed 60 days. Set-up: species or system C3H mice. On the procedure:
C-3 fibrosarcoma cells (3 x 10⁵) were injected into the left gluteal region of C3H mice on day 0. On day 1, the mice were provided with treatment by a combination of DPPE and adriamycin, administered intraperitoneally. The DPPE was administered 60 minutes prior to administration of the adriamycin. Mice also were administered with saline, DPPE alone and adriamycin alone.
Animals in the experiments (n=12) were followed for 60 days. At the end of the experimental period, those animals free of palpable tumors were considered cured.

The next series deals with B16 melanoma cells. The series is described as follows: In vivo augmentation of BCNU anti-tumor activity in a B16 melanoma lung metastasis model. The conditions noted are these: for (% control) of lung metastases / Numbers of lung metastases / Median Survival: intraperitoneal day 1; for (% control) of lung metastases / Numbers of lung metastases: lungs at day 14; for Numbers of lung metastases: saline 241; for Median Survival: saline 19; for Size of lung metastases: Macro means visually determined, Micro means microscopically only. Details: species or system C57Bl mice. On the procedure: 5 x 10⁴ B16 melanoma cells were injected intravenously into the tail vein of C57Bl mice at day 0. The mice were treated with either saline, 32mg/kg of DPPE, 1mg of BCNU or a combination of 32mg/kg of DPPE and 1mg of BCNU, by intraperitoneal injection on day 1. The DPPE was administered 60 minutes before the BCNU.
In each group, six of the twelve animals were sacrificed at day 14 and lungs were removed for determination of metastasis. The remaining six animals were followed to death. The numbers and size of the lung metastases were determined by visual or microscope count.

The test system of series [1] is patients with advanced cancer. In words: Clinical study in patients with advanced cancer. On the procedure:
A clinical study was carried out with 14 patients with advanced cancer. • (a) DPPE alone was administered to patients to determine a safe dose range in humans.

For series [2], the system named is Spleen cells from BALB/C mice. The series is described as follows: Thymidine incorporation into DNA of Concanavalin A-stimulated lymphocytes. The format is cell-based. As to the method:
Spleen cells from BALB/C mice were stimulated with Concanavalin A (5 µg/ml) for thymidine incorporation. The cells then were treated with varying does of DPPE and the level of thymidine incorporated was determined. The results were plotted graphically and appear as Figure 1.
The experiment was repeated using 2.5 µg/ml of Concanavalin A in place of 5 µg/ml and 2% fetal calf serum in place of 10%. The results obtained are illustrated in Figure 2.
A general note: Dividing cells build labelled thymidine or BrdU into new DNA.

For another series, the system named is malignant cells. The conditions noted are these: as described in US-A- No. 4,803,227; cited from earlier work.
A further series relates to ulcer formation. The following applies: in the presence of noxious agents, such as alcohol and cysteamine; see US-A-4,829,068; cited from earlier work.
The next series relates to certain B cells. The series is described as follows: Interleukin-2 stimulated antibody formation in B cells. Format: cell-based. An excerpt:
As with bone marrow cells, the treatment of normal proliferating lymphocytes (immune cells), according to the invention, results in a dose-dependent blocking of DNA synthesis and a shut-down of these cells without causing cytotoxicity. The antagonist has an effect on both T-lymphocytes and B-lymphocytes in the immune system. […] DPPE also blocks the stimulation of antibody formation by the mediator interleukin-2 in certain B cells, resulting is a decrease in antibody formation.

Another series concerns prostaglandin (PG)I₂. In words: Prostaglandin level in the gut after DPPE treatment. The format is in vivo. An excerpt:
In addition, the antagonism results in an increase in the levels of prostaglandins (natural substances which are known to protect tissues from various injurious agents) in the tissue. For example, DPPE treatment results in an increase by 500% in prostaglandin (PG)I₂, a protective prostaglandin, in the gut.

The test system of series [3] is human breast cancer cell (MCF-7). The series is described as follows: Thymidine incorporation and cytotoxicity in breast cancer cells. Format: cell-based. The following applies: 0.25 nM of thymidine, Figure 5. On the procedure:
The experiment was again repeated using human breast cancer cell (MCF-7) with 0.25 nM of thymidine added. The results were plotted graphically and appear as Figure 5.

Series [4] relates to virally-infected non-senescing transformed spleen-derived lymphocytes (S-10). The series is described as follows: Thymidine incorporation and cytotoxicity in virally-infected transformed lymphocytes. Format: cell-based, BALB/C origin. On the procedure:
The experiment of Example VI was repeated employing virally-infected non-senescing transformed spleen-derived lymphocytes (S-10) also of BALB/C origin with 0.25 nM of ³H-thymidine added. The results were plotted graphically and appear as Figures 3 and 4 respectively. As may be seen therein, in contrast to Figures 1 and 2, 25 µM of DPPE caused approximately 50% cytotoxicity to the virally-infected cells. When adjusted for cell number, thymidine incorporation increased at cytotoxic concentrations of DPPE (10 to 25 µM).

The next series concerns DBA/2 mice. The series is described as follows: In vivo host cytoprotection from a lethal dose of adriamycin. The conditions noted are these: DPPE 2 mg/kg 1 hour (n=12) or 15 minutes (n=6) prior to 15 mg/kg of adriamycin, after 30 days. As to the method:
Saline or DPPE (2 mg/kg) were administered to DBA/2 mice 1 hour (n=12) or 15 minutes (n=6) prior to administration of 15 mg/kg of adriamycin. The number of survivors after 30 days was determined.

A further series relates to B16f10 melanoma cells. In words: In vivo augmentation of daunorubicin anti-tumor activity in a B16 melanoma lung metastasis model. Details: species or system mice. The following applies: Daunorubicin 12.5 mg/kg alone, 24 hours after cells. On the procedure: The procedure of Example III was repeated employing daunorubicin in place of BCNV. Groups of six mice were injected with B16f10 melanoma cells and 24 hours later received saline, 4 mg/kg of DPPE alone, a non-lethal dose of daunorubicin alone (12.5 mg/kg) or DPPE (4, 25 or 50 mg/kg) one hour prior to daunorubicin (12.5 mg/kg). All animals were followed to death or for 60-days post injection, and sacrificed for lung metastases.

The conditions of series [5]: administered five hours or more prior to the chemotherapeutic agent; cited from earlier work.
Where [6] appears, read: Adriamycin lethal dose (20mg/kg) alone, 24h.
Where [7] appears, read: Adriamycin lethal dose (20mg/kg) alone, 48h.
Where [8] appears, read: DPPE 0.2 mg/kg daily, patients treated with Adriamycin (60 mg/m²).
Setting [9] is: 25 µM DPPE, Concanavalin A 5 µg/ml, 10% fetal calf serum, Figure 1.

Like-named read-outs stand apart in the source and are kept apart here.

Take `O=c1[nH]cc(F)c(=O)[nH]1` [5FU, 5-fluorouracil]: in the series on bone marrow progenitors (24h), the “CFU-C/10⁴ cells (No. of bone marrow colonies)” value came out at 0.2 CFU-C/10⁴ cells and the “R.C.S. (Relative Cell Survival)” value stood at 0.006. Also, in the series on bone marrow progenitors (48h), the “CFU-C/10⁴ cells (No. of bone marrow colonies)” value came out at 0.09 CFU-C/10⁴ cells and the “R.C.S. (Relative Cell Survival)” value was determined as 0.002.

Regarding `COc1cccc2c1C(=O)c1c(O)c3c(c(O)c1C2=O)C[C@@](O)(C(=O)CO)C[C@@H]3O[C@H]1C[C@H](N)[C@H](O)[C@H](C)O1` [Adriamycin, doxorubicin], the CFU-C/10⁴ cells with bone marrow progenitors (setting [6]) is 1.8 CFU-C/10⁴ cells; in the series on bone marrow progenitors (setting [7]), 0.65 CFU-C/10⁴ cells. Further, the R.C.S. is recorded as 0.04 in the series with bone marrow progenitors (setting [6]) and 0.006 in the series on bone marrow progenitors (setting [7]). In addition, the “Number of Mice Tumor-Free (n=12)” value in the series on C-3 fibrosarcoma cells (Adriamycin 2mg/kg alone) is listed as 0.

Turning to `O=NN(CCCl)C(=O)NCCCl` [BCNU, reference compound], in the series with B16 melanoma cells (BCNU 1mg alone), the “(% control) of lung metastases” value is 60%, the “Numbers of lung metastases” value worked out at 144, the “Median Survival” value is reported as 24 days and the “Size of lung metastases” value is “All Macro”.

With `CCN(CC)CCOc1ccc(Cc2ccccc2)cc1` [DPPE, N,N-diethyl-2-[4-(phenylmethyl)-phenoxy]ethanamine], in the series with bone marrow progenitors (DPPE 4mg/kg alone, 24h), the CFU-C/10⁴ cells turned out to be 42.3 CFU-C/10⁴ cells and the R.C.S. came to 0.97. In the series with bone marrow progenitors (DPPE 4mg/kg alone, 48h), this compound showed a CFU-C/10⁴ cells of 41.3 CFU-C/10⁴ cells and a R.C.S. of 0.97. Moreover, the mouth ulceration entry in series [1] (72-hour infusion of low dose DPPE, one patient) is reported as “prevented”. Besides, the “acute and delayed gastrointestinal side effects of Adriamycin” value in [1] (DPPE 0.2 mg/kg daily as a 72-hour infusion, Adriamycin 60 mg/m², four patients, two treatments each) is listed as “block completely”. Also, in series [1] (DPPE 0.2 mg/kg daily, 24-hour infusion, first 24 to 48 hours following Adriamycin, delayed nausea, vomiting and/or anorexia at 72 or 96 hours in many patients), the anti-emetic effect result is listed as “effective anti-emetic therapy”. Further, in series [1] (setting [8]), the “amelioration of nausea, vomiting, anorexia and stomatitis” value is “over 90%”; the “patients in whom nausea, vomiting, anorexia and stomatitis were prevented or ameliorated” value is given as 6/6. For the same compound, the toxicity entry in series [1] (DPPE alone, 6 mg/kg administered IV over 2 hours) is recorded as “significant toxicity was absent”. Besides, the highest non-toxic dosage in series [1] (DPPE alone, given intravenously over a one-hour period) came to 4 mg/kg. For the same compound, the “effect on platelets, hemoglobin or biochemistry” value in series [1] (human, in vivo) was “No significant effect”. In addition, in series [1] (human, in vivo, 6 mg/kg), the CNS toxicity result is reported as “dose limiting” and the “drop in body core temperature” value was 1-2 °C. Also, the “threshold for CNS toxicity” value in series [1] (human, in vivo, 1 h) was found to be 240 mg/M². Besides, in series [1] (human, in vivo, iv, 0.2 mg/kg), the “changes in biochemistries or blood counts” value is “not to cause any significant changes” and the clinical side effects entry was “entirely without clinical side effects”. Besides, the “antiemetic effect against Adriamycin” value in series [1] (single iv doses of DPPE (1, 2, 4 mg/kg) given over 1 hour) is given as “significantly antiemetic”. For the same compound, in series [2] (setting [9]), the cell survival entry is listed as “does not adversely affect” and the “thymidine incorporation into DNA” value is “completely blocks”. In series [2] (Concanavalin A 2.5 µg/ml, 2% fetal calf serum, Figure 2), the “concentrations of DPPE which inhibited DNA synthesis” value was found to be 5 µm. Also, in [2] (at 5 µm DPPE, Concanavalin A 2.5 µg/ml, 2% fetal calf serum, Figure 2), the cytotoxicity result is given as “no significant cytotoxicity”. Besides, the “proliferation of T-lymphocytes” value in series [2] (in the presence of Concanavalin A) is listed as “completely antagonize”. Moreover, in the series with malignant cells, the “effect on malignant cells in vitro” value is recorded as “damages and/or kills”. Also, in the series with B16 melanoma cells (DPPE 32mg/kg alone), the “(% control) of lung metastases” value was found to be 91%, the “Numbers of lung metastases” value is recorded as 219, the “Median Survival” value turned out to be 21 days and the “Size of lung metastases” value is on record as “All Macro”. For the same compound, the ulcer formation entry in the series on ulcer formation is reported as “completely block”. Moreover, in the series on certain B cells, the “stimulation of antibody formation by interleukin-2” value is listed as “blocks”. In addition, the “increase in prostaglandin (PG)I₂ in the gut” value with prostaglandin (PG)I₂ is 500%. The “cytotoxicity and thymidine incorporation compared with S-10 cells” value in series [3] is listed as “Analogous results”. Besides, in the series on C-3 fibrosarcoma cells (DPPE 50mg/kg alone), the “Number of Mice Tumor-Free (n=12)” value was determined as 0. In [4] (25 µM of DPPE, S-10 cells, Figures 3 and 4), the “cytotoxicity to the virally-infected cells” value was “approximately 50%”. Also, the “thymidine incorporation adjusted for cell number” value in series [4] (at cytotoxic concentrations of DPPE (10 to 25 µM), 0.25 nM ³H-thymidine) is recorded as “increased”. The “Number of Survivors” value with DBA/2 mice (saline group 4/12) is recorded as 13/18. Further, the “Number of Survivors (percent)” value in the series on DBA/2 mice (saline group 33%) is 72%. Further, the “threshold for CNS toxicity” value with mice was 240 mg/M².

Regarding `COc1cccc2c1C(=O)c1c(O)c3c(c(O)c1C2=O)C[C@@](O)(C(C)=O)C[C@@H]3O[C@H]1C[C@H](N)[C@H](O)[C@H](C)O1` [Daunorubicin, daunorubicin], the “No. Cures (n=6)” value in the series on B16f10 melanoma cells (followed 60 days) worked out at 0. Besides, the “Median Survival” value in the series on B16f10 melanoma cells (followed to death or 60 days, saline 17) was 25 days.

With `N[C@H](CO)Cc1c[nH]cn1` [L-histidinol], in series [5], the effective doses entry is given as “approximately 1000 mg/kg of tissue”.
